Tests used:
[1] = In vivo pharmacokinetic assay in rats (intravenous injection and oral administration); conditions: SD rats; for AUC / clearance / half-life / Vd / Cmax: male, rat, plasma; for Vd: read-out: Vss
Description: (§1) III. In Vivo Pharmacokinetic Assay in Mice and Rats
(§2) The pharmacokinetic behavior of the compound of the present disclosure in plasma after a single intravenous injection and oral administration was studied using male C57BL/6 mice or SD male rats as experimental animals.
(§3) Healthy adult C57BL/6 mice or SD rats (3 mice or rats per group), male, supplied by Shanghai Jihui Laboratory Animal Care Co., Ltd. and Vital River Laboratory Animal Technology Co., Ltd.
(§4) Both the intravenous injection and oral administration groups consisted of 3 mice or rats. The intravenous injection was at a dose of 1 mg/kg and in a volume of 5 mL/kg; the oral administration was at a dose of 5 mg/kg and in a volume of 10 mL/kg. The vehicle for administration was 5% DMSO/5% Kolliphor HS 15/90% Saline.
(§5) 2.3 Experimental Equipment
(§6) The centrifuge was purchased from Eppendorf, and the pipette was purchased from Eppendorf.
(§7) After the animals were administered, 0.02 mL of blood was collected from the vein at 0.0833 (IV), 0.25, 0.5, 1, 2, 4, 8, and 24 hours, respectively, placed in an EDTA-K2 test tube, centrifuged at 4600 rpm for 5 minutes at 4° C. to separate the plasma, and stored at −80° C.
(§8) 1) 10 μL of plasma sample was precipitated by adding 200 μL of acetonitrile, vortexed to mix, and centrifuged for 15 minutes.
(§9) 2) The treated supernatant was diluted with water, and the concentration of the test compound was analyzed by LC/MS/MS.
(§10) • Liquid phase conditions: Shimadzu LC-30AD • Mass spectrometry conditions: AB Sciex API 5500 • Chromatographic column: Phenomenex Kinetex 2.6 μm C18 • Mobile phases: A: 5 mM ammonium acetate aqueous solution (containing 0.05% formic acid); B: acetonitrile (containing 0.1% formic acid); flow rate: 0.5 mL/min
(§11) 3. Experimental Results and Analysis
(§12) Pharmacokinetic parameters were calculated using WinNonlin 8.0, and the pharmacokinetic parameters for intravenous injection and oral administration in mice or rats are shown in Table 2 and Table 3 below: […]

[2] = In vivo pharmacokinetic assay in mice (intravenous injection and oral administration); conditions: C57BL/6 mice; for AUC / clearance / half-life / Vd / Cmax: male, mouse, plasma; for Vd: read-out: Vss
Description: as §1, §2, §3, §4, §5, §6, §7, §8, §9, §10, §11, §12

[3] = biological target: PARP7 (Homo sapiens (Human), UniProt Q7Z3E1); experiment: In vitro enzymology experiment of PARP7 (enzymatic inhibition); format: biochemical
How it was run: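 Histone-coated plate ADP-ribosylation format: compound preincubated 10 min at room temperature with preincubated (25 °C, 10 min) enzyme mixture; incorporated biotin detected by streptavidin-HRP and QuantaRed fluorescence (Ex550/Em620).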

PARP7, sequence (Q7Z3E1 whole entry): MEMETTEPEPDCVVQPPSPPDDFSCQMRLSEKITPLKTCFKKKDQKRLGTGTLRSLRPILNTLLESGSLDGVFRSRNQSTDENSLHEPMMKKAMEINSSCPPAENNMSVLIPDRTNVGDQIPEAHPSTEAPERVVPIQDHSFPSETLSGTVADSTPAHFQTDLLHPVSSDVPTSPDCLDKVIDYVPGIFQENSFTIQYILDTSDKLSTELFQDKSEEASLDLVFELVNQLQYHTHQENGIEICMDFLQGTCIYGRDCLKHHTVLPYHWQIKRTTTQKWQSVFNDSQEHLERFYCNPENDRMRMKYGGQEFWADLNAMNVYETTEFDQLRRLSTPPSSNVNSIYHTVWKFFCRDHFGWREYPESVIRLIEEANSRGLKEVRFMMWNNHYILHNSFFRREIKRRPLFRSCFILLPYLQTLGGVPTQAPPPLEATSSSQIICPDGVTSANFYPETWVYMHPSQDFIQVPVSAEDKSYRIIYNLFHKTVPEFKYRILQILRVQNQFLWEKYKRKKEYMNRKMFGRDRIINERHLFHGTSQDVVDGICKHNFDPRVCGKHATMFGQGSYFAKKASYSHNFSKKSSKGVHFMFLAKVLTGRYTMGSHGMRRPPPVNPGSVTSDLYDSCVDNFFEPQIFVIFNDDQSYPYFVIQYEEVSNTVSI

C[C@@H](Cc1c[nH]c(=O)c(C(F)(F)F)c1)OC(=O)N1CCN(c2ncc(C(F)(F)F)cn2)CC1 (single isomer, unassigned) [Example 35]
F ([1]; oral administration, 5 mg/kg): 35%
AUC ([1]; intravenous injection, 1 mg/kg): 633 ng·h/mL
clearance ([1]; intravenous injection, 1 mg/kg): 28.3 mL/min/kg
half-life ([1]; intravenous injection, 1 mg/kg): 3.5 h
Vd ([1]; intravenous injection, 1 mg/kg): 3.3 L/kg
AUC ([1]; oral administration, 5 mg/kg): 1060 ng·h/mL
Cmax ([1]; oral administration, 5 mg/kg): 434 ng/mL
F ([2]; oral administration, 5 mg/kg): 52%
AUC ([2]; intravenous injection, 1 mg/kg): 2570 ng·h/mL
clearance ([2]; intravenous injection, 1 mg/kg): 6.67 mL/min/kg
half-life ([2]; intravenous injection, 1 mg/kg): 4.2 h
Vd ([2]; intravenous injection, 1 mg/kg): 1.5 L/kg
AUC ([2]; oral administration, 5 mg/kg): 6760 ng·h/mL
Cmax ([2]; oral administration, 5 mg/kg): 3750 ng/mL
IC50 [3]: 0.53 nM

O=C(OCCc1c[nH]c(=O)c(C(F)(F)F)c1)N1CCN(c2ncc(C(F)(F)F)cn2)CC1 [Example 3, 2-(6-Oxo-5-(trifluoromethyl)-1,6-dihydropyridin-3-yl)ethyl 4-(5-(trifluoromethyl)pyrimidin-2-yl)piperazine-1-carboxylate]
F ([1]; oral administration, 5 mg/kg): 47%
AUC ([1]; intravenous injection, 1 mg/kg): 5740 ng·h/mL
clearance ([1]; intravenous injection, 1 mg/kg): 3.33 mL/min/kg
half-life ([1]; intravenous injection, 1 mg/kg): 4.7 h
Vd ([1]; intravenous injection, 1 mg/kg): 0.9 L/kg
AUC ([1]; oral administration, 5 mg/kg): 13800 ng·h/mL
Cmax ([1]; oral administration, 5 mg/kg): 2350 ng/mL
F ([2]; oral administration, 5 mg/kg): 80%
AUC ([2]; intravenous injection, 1 mg/kg): 10400 ng·h/mL
clearance ([2]; intravenous injection, 1 mg/kg): 1.5 mL/min/kg
half-life ([2]; intravenous injection, 1 mg/kg): 6.1 h
Vd ([2]; intravenous injection, 1 mg/kg): 0.6 L/kg
AUC ([2]; oral administration, 5 mg/kg): 42200 ng·h/mL
Cmax ([2]; oral administration, 5 mg/kg): 9310 ng/mL
IC50 [3]: 1.8 nM

C[C@@H](Cc1c[nH]c(=O)c(C(F)(F)F)c1)OC(=O)N1CCN(c2ncc(C(F)(F)F)cn2)[C@@H](C)C1 [Example 93, (S)-1-(6-Oxo-5-(trifluoromethyl)-1,6-dihydropyridin-3-yl)propan-2-yl (S)-3-methyl-4-(5-(trifluoromethyl)pyrimidin-2-yl)piperazine-1-carboxylate]
F ([1]; oral administration, 5 mg/kg): 77%
AUC ([1]; intravenous injection, 1 mg/kg): 978 ng·h/mL
clearance ([1]; intravenous injection, 1 mg/kg): 16.7 mL/min/kg
half-life ([1]; intravenous injection, 1 mg/kg): 1.9 h
Vd ([1]; intravenous injection, 1 mg/kg): 1.9 L/kg
AUC ([1]; oral administration, 5 mg/kg): 3830 ng·h/mL
Cmax ([1]; oral administration, 5 mg/kg): 809 ng/mL
IC50 [3]: 0.78 nM

C[C@@H]1CN(c2ncc(C(F)(F)F)cn2)CCN1C(=O)OCCc1c[nH]c(=O)c(C(F)(F)F)c1 [Example 109, 2-(6-Oxo-5-(trifluoromethyl)-1,6-dihydropyridin-3-yl)ethyl (R)-2-methyl-4-(5-(trifluoromethyl)pyrimidin-2-yl)piperazine-1-carboxylate]
F ([1]; oral administration, 5 mg/kg): 99%
AUC ([1]; intravenous injection, 1 mg/kg): 1060 ng·h/mL
clearance ([1]; intravenous injection, 1 mg/kg): 15 mL/min/kg
half-life ([1]; intravenous injection, 1 mg/kg): 2.3 h
Vd ([1]; intravenous injection, 1 mg/kg): 2.1 L/kg
AUC ([1]; oral administration, 5 mg/kg): 5380 ng·h/mL
Cmax ([1]; oral administration, 5 mg/kg): 1310 ng/mL
F ([2]; oral administration, 5 mg/kg): 72%
AUC ([2]; intravenous injection, 1 mg/kg): 8100 ng·h/mL
clearance ([2]; intravenous injection, 1 mg/kg): 1.67 mL/min/kg
half-life ([2]; intravenous injection, 1 mg/kg): 6.3 h
Vd ([2]; intravenous injection, 1 mg/kg): 0.6 L/kg
AUC ([2]; oral administration, 5 mg/kg): 29600 ng·h/mL
Cmax ([2]; oral administration, 5 mg/kg): 8490 ng/mL
IC50 [3]: 0.38 nM

C[C@@H]1CN(c2ncc(C3CC3)cn2)C[C@H](C)N1C(=O)O[C@@H](C)Cc1c[nH]c(=O)c(C(F)(F)F)c1 [Example 174, (S)-1-(6-Oxo-5-(trifluoromethyl)-1,6-dihydropyridin-3-yl)propan-2-yl (2R,6S)-4-(5-cyclopropylpyrimidin-2-yl)-2,6-dimethylpiperazine-1-carboxylate]
IC50 [3]: 1.3 nM

C[C@@H]1CN(c2ncc(C3CC3)cn2)C[C@@H](C)N1C(=O)O[C@@H](C)Cc1c[nH]c(=O)c(C(F)(F)F)c1 [Example 175, (S)-1-(6-Oxo-5-(trifluoromethyl)-1,6-dihydropyridin-3-yl)propan-2-yl (2R,6R)-4-(5-cyclopropylpyrimidin-2-yl)-2,6-dimethylpiperazine-1-carboxylate]
IC50 [3]: 0.76 nM

C[C@@H](Cc1c[nH]c(=O)c(C(F)(F)F)c1)OC(=O)N1CCN(c2ncc(C3CC3)cn2)CC1 [Example 176, (S)-1-(6-Oxo-5-(trifluoromethyl)-1,6-dihydropyridin-3-yl)propan-2-yl 4-(5-cyclopropylpyrimidin-2-yl)piperazine-1-carboxylate]
IC50 [3]: 1.7 nM

C[C@@H](Cc1c[nH]c(=O)c(C(F)(F)F)c1)OC(=O)N1[C@@H](C)CN(c2ncc(C3CC3)cn2)C[C@@H]1C [Example 177, (S)-1-(6-Oxo-5-(trifluoromethyl)-1,6-dihydropyridin-3-yl)propan-2-yl (2S,6S)-4-(5-cyclopropylpyrimidin-2-yl)-2,6-dimethylpiperazine-1-carboxylate]
IC50 [3]: 0.78 nM

C[C@@H]1CN(C(=O)O[C@@H](C)Cc2c[nH]c(=O)c(C(F)(F)F)c2)[C@@H](C)CN1c1ncc(C2CC2)cn1 [Example 178, (S)-1-(6-Oxo-5-(trifluoromethyl)-1,6-dihydropyridin-3-yl)propan-2-yl (2S,5R)-4-(5-cyclopropylpyrimidin-2-yl)-2,5-dimethylpiperazine-1-carboxylate]
IC50 [3]: 1.4 nM

C[C@@H]1CN(c2ncc(C3CC3)cn2)[C@H](C)CN1C(=O)O[C@@H](C)Cc1c[nH]c(=O)c(C(F)(F)F)c1 [Example 179, (S)-1-(6-Oxo-5-(trifluoromethyl)-1,6-dihydropyridin-3-yl)propan-2-yl (2R,5R)-4-(5-cyclopropylpyrimidin-2-yl)-2,5-dimethylpiperazine-1-carboxylate]
IC50 [3]: 1 nM

C[C@@H]1CN(C(=O)OCCc2c[nH]c(=O)c(C(F)(F)F)c2)C[C@H](C)N1c1ncc(C2CC2)cn1 [Example 181, 2-(6-Oxo-5-(trifluoromethyl)-1,6-dihydropyridin-3-yl)ethyl (3S,5R)-4-(5-cyclopropylpyrimidin-2-yl)-3,5-dimethylpiperazine-1-carboxylate]
IC50 [3]: 1.3 nM

C[C@H]1CN(c2ncc(C3CC3)cn2)C[C@H](C)N1C(=O)OCCc1c[nH]c(=O)c(C(F)(F)F)c1 [Example 182, 2-(6-Oxo-5-(trifluoromethyl)-1,6-dihydropyridin-3-yl)ethyl (2S,6S)-4-(5-cyclopropylpyrimidin-2-yl)-2,6-dimethylpiperazine-1-carboxylate]
IC50 [3]: 5.5 nM

C[C@@H]1CN(C(=O)OCCc2c[nH]c(=O)c(C(F)(F)F)c2)[C@@H](C)CN1c1ncc(C2CC2)cn1 [Example 183, 2-(6-Oxo-5-(trifluoromethyl)-1,6-dihydropyridin-3-yl)ethyl (2S,5R)-4-(5-cyclopropylpyrimidin-2-yl)-2,5-dimethylpiperazine-1-carboxylate]
IC50 [3]: 1 nM

C[C@@H]1CN(c2ncc(C3CC3)cn2)[C@@H](C)CN1C(=O)OCCc1c[nH]c(=O)c(C(F)(F)F)c1 [Example 184, 2-(6-Oxo-5-(trifluoromethyl)-1,6-dihydropyridin-3-yl)ethyl (2R,5S)-4-(5-cyclopropylpyrimidin-2-yl)-2,5-dimethylpiperazine-1-carboxylate]
IC50 [3]: 1.2 nM

Reference: patent US20240351997A1, “NOVEL PARP7 INHIBITOR AND USE THEREOF” (SHANGHAI QILU PHARMACEUTICAL RESEARCH AND DEVELOPMENT …, priority 2021, published 2024)
